Test results taken from patent US20190051326A1, “Ionic Liquid, Lubricant, and Magnetic Recording Medium” (priority 2016, published 2019).

Tests used:
[1] = Thermal stability, TG/DTA measurement; details: for thermal stability higher compared to Z-DOL (Comparative Example 10C) / thermal stability higher compared to Z-TETRAOL (Comparative Example 11C): difference of weight reduction temperatures; for Weight reduction temperature 5% / Weight reduction temperature 10% / Weight reduction temperature 20%: air 200 mL/min, 30° C. to 600° C., heating rate 10° C./min
[2] = in acetonitrile; cited from earlier work
[3] = Solubility to fluorine-based solvent (Vertrel XF), 1.0/0.5/0.1 parts by mass added; details: Vertrel XF [CF3(CHF)2CF2CF3], 25° C., ultrasonic waves 5 minutes, left 1 day, visual observation; 0.5 and 0.1 parts by mass per 100 parts
Protocol: Then, the resultant was left to stand for 1 day and solubility thereof was visually observed.
Then, the resultant was left to stand for 1 day and solubility thereof was visually observed, followed by evaluation based on the following evaluation criteria.
[Evaluation Criteria] • 0.5% by mass or more:
When 0.5 parts by mass of the ionic liquid was added, dissolution was found. • 0.1% by mass or more but less than 0.5% by mass:
When 0.5 parts by mass of the ionic liquid was added, no dissolution was found. However, when 0.1 parts by mass of the ionic liquid was added, dissolution was found. • Less than 0.1% by mass:
When 0.5 parts by mass of the ionic liquid was added, no dissolution was found. Moreover, when 0.1 parts by mass of the ionic liquid was added, no dissolution was found.

[4] = Solubility to solvents (Vertrel XF, n-hexane, ethanol); assay type: physicochemical; details: 25° C., visual observation after 1 day; for Solubility Fluorine-based solvent: Vertrel XF, 0.2 parts by mass per 100 parts; for Solubility Ethanol / Solubility n-Hexane: 0.5 parts by mass per 100 parts
Protocol: To a predetermined mass of Vertrel XF, n-hexane, or ethanol, each of the ionic liquids was added and was irradiated with ultrasonic waves for 5 minutes. Then, the resultant was left to stand for 1 day and solubility thereof was visually observed.
Specifically, to 100 parts by mass of Vertrel XF (25° C.), 0.2 parts by mass of the ionic liquid was added and was irradiated with ultrasonic waves for 5 minutes. Then, the resultant was left to stand for 1 day and solubility thereof was visually observed, followed by evaluation based on the following evaluation criteria. In the cases of n-hexane and ethanol, each of the ionic liquids (0.5 parts by mass) was added to 100 parts by mass of n-hexane or ethanol at 25° C. The resultant was irradiated with ultrasonic waves for 5 minutes. Then, the resultant was left to stand for 1 day and solubility thereof was visually observed, followed by evaluation based on the following evaluation criteria.
<<Vertrel XF>> • 0.2% by mass or more:
When 0.2 parts by mass of the ionic liquid was added, dissolution was found. • Less than 0.2% by mass:
When 0.2 parts by mass of the ionic liquid was added, no dissolution was found.
<<n-Hexane and Ethanol>> • 0.5% by mass or more:
When 0.5 parts by mass of the ionic liquid was added, dissolution was found. • Less than 0.5% by mass:

Row | Compound | Weight reduction temperature 5% [1] [°C] | Weight reduction temperature 10% [1] [°C] | Weight reduction temperature 20% [1] [°C] | also measured
1 | CCCCCCCCCCCCCCCCCC[n+]1ccn(CCCO)c1CCCCCCCCCCCCCCCCC.O=S(=O)([N-]S(=O)(=O)C(F)(F)C(F)(F)C(F)(F)C(F)(F)F)C(F)(F)C(F)(F)C(F)(F)C(F)(F)F | – | – | – | thermal stability higher compared to Z-DOL (Comparative Example 10C) [1]: ≥ 160 °C; thermal stability higher compared to Z-TETRAOL (Comparative Example 11C) [1]: ≥ 85 °C
2 | CCCCCCCCCCCCCC[N+](C)(C)CCCO.O=S(=O)([N-]S(=O)(=O)C(F)(F)C(F)(F)C(F)(F)C(F)(F)F)C(F)(F)C(F)(F)C(F)(F)C(F)(F)F | – | – | – | thermal stability higher compared to Z-DOL (Comparative Example 10C) [1]: ≥ 145 °C; thermal stability higher compared to Z-TETRAOL (Comparative Example 11C) [1]: ≥ 90 °C
3 | CCCCCCCCCCCCCCCCCC[N+](C)(C)CCCO.O=S(=O)([N-]S(=O)(=O)C(F)(F)C(F)(F)C(F)(F)C(F)(F)F)C(F)(F)C(F)(F)C(F)(F)C(F)(F)F | – | – | – | thermal stability higher compared to Z-DOL (Comparative Example 10C) [1]: ≥ 150 °C; thermal stability higher compared to Z-TETRAOL (Comparative Example 11C) [1]: ≥ 90 °C
4 | CCCCCCCCCCCCCCCCCC[N+]1(CCCO)CCCC1.O=S(=O)([N-]S(=O)(=O)C(F)(F)C(F)(F)C(F)(F)C(F)(F)F)C(F)(F)C(F)(F)C(F)(F)C(F)(F)F | – | – | – | thermal stability higher compared to Z-DOL (Comparative Example 10C) [1]: ≥ 160 °C; thermal stability higher compared to Z-TETRAOL (Comparative Example 11C) [1]: ≥ 100 °C
5 | CCCCCCCCCCCCCCCCCC[n+]1ccn(CCCO)c1.O=S(=O)([N-]S(=O)(=O)C(F)(F)C(F)(F)C(F)(F)C(F)(F)F)C(F)(F)C(F)(F)C(F)(F)C(F)(F)F | – | – | – | thermal stability higher compared to Z-DOL (Comparative Example 10C) [1]: ≥ 150 °C; thermal stability higher compared to Z-TETRAOL (Comparative Example 11C) [1]: ≥ 90 °C
6 | O=S(=O)(C(S(=O)(=O)C(F)(F)F)S(=O)(=O)C(F)(F)F)C(F)(F)F [(CF3SO2)3CH] | – | – | – | pKa [2]: −3.7
7 | CCCCCCCCCCCCCCCCCC[n+]1ccn(CCCC)c1.O=S1(=O)[N-]S(=O)(=O)C(F)(F)C(F)(F)C1(F)F [Comparative Example 2A, hexafluorocyclopropane-1,3-bis(sulfonyl)imide-1-butyl-3-n-octadecylimidazolium, reference compound] | 347.2 | 367.0 | 387.8 | Fluorine-based solvent solubility [3]: Less than 0.1% by % by mass
8 | CCCCCCCCCCCCCCCCCCC1CCCCN2CCCN=C12.O=S1(=O)NS(=O)(=O)C(F)(F)C(F)(F)C1(F)F (stereo not drawn) [Comparative Example 4A, hexafluorocyclopropane-1,3-bis(sulfonyl)imide-6-octadecyl-1,8-diazabicyclo[5.4.0]-7-undecenium, reference compound] | 346.3 | 384.1 | 414.0 | Fluorine-based solvent solubility [3]: Less than 0.1% by % by mass
9 | CCCCCCCCCCCCCCCCCCn1ccnc1CCCCCCCCCCCCCCCCC.O=S1(=O)NS(=O)(=O)C(F)(F)C(F)(F)C1(F)F [Comparative Example 7A, hexafluorocyclopropane-1,3-bis(sulfonyl)imide-1-octadecyl-2-heptadecylimidazolium, reference compound] | 303.7 | 366.4 | 405.0 | Solubility Fluorine-based solvent [4]: Less than 0.2% by mass; Solubility Ethanol [4]: ≥ 0.5% by mass; Solubility n-Hexane [4]: < 0.5% by mass
10 | CCCCCCCCCCCCCCCCCCN.O=S(=O)(NS(=O)(=O)C(F)(F)C(F)(F)C(F)(F)C(F)(F)F)C(F)(F)C(F)(F)C(F)(F)C(F)(F)F [Comparative Example 8A, bis(nonafluorobutanesulfonyl)imide-octadecylammonium, reference compound] | 311.8 | 329.8 | 348.0 | Solubility Fluorine-based solvent [4]: Less than 0.2% by mass; Solubility Ethanol [4]: ≥ 0.5% by mass; Solubility n-Hexane [4]: < 0.5% by mass
11 | CCCCCCCCCCCCCCCCCC[n+]1ccn(CCCO)c1.O=S(=O)([N-]S(=O)(=O)C(F)(F)C(F)(F)C(F)(F)C(F)(F)F)C(F)(F)C(F)(F)C(F)(F)C(F)(F)F [Example 2A, bis(nonafluorobutanesulfonyl)imide1-3′hydroxypropyl-3-octadecylimidazolium] | 327.7 | 361.7 | 389.3 | –
12 | CCCCCCCCCCCCCCCCCC[N+]1(CCCO)CCCC1.O=S(=O)([N-]S(=O)(=O)C(F)(F)C(F)(F)C(F)(F)C(F)(F)F)C(F)(F)C(F)(F)C(F)(F)C(F)(F)F [Example 3A, bis(nonafluorobutanesulfonyl)imide-N-3′hydroxypropyl-N-octadecylpyrrolidinium] | 349.8 | 370.8 | 387.6 | –
13 | CCCCCCCCCCCCCCCCCCC1CCCCN2CCC[N+](CCCO)=C12.O=S(=O)([N-]S(=O)(=O)C(F)(F)C(F)(F)C(F)(F)C(F)(F)F)C(F)(F)C(F)(F)C(F)(F)C(F)(F)F (stereo not drawn) [Example 5A, bis(nonafluorobutanesulfonyl)imide-6-octadecyl-8-3′-hydroxypropyl-1,8-diazabicyclo[5.4 0.0]-7-undecenium] | 326.2 | 360.8 | 387.7 | thermal stability higher compared to Z-DOL (Comparative Example 10C) [1]: ≥ 160 °C; thermal stability higher compared to Z-TETRAOL (Comparative Example 11C) [1]: ≥ 85 °C
14 | CCCCCCCCCCCCCCCCCC[n+]1ccn(CCCO)c1CCCCCCCCCCCCCCCCC.O=S(=O)([N-]S(=O)(=O)C(F)(F)C(F)(F)C(F)(F)C(F)(F)F)C(F)(F)C(F)(F)C(F)(F)C(F)(F)F [Example 8A, bis(nonafluorobutanesulfonyl)imide-1-3′hydroxypropyl-2-heptadecyl-3-octadecylimidazolium] | 327.8 | 364.3 | 398.8 | –
15 | CCCCCCCCCCCCCC[N+](C)(C)CCCO.O=S(=O)([N-]S(=O)(=O)C(F)(F)C(F)(F)C(F)(F)C(F)(F)F)C(F)(F)C(F)(F)C(F)(F)C(F)(F)F [Example 9A, bis(nonafluorobutanesulfonyl)imide-N-3′hydroxypropyl-N,N-dimethyltetradecylammonium] | 340.0 | 359.0 | 375.0 | –
16 | CCCCCCCCCCCCCCCCCC[N+](C)(C)CCCO.O=S(=O)([N-]S(=O)(=O)C(F)(F)C(F)(F)C(F)(F)C(F)(F)F)C(F)(F)C(F)(F)C(F)(F)C(F)(F)F [Example 10A, bis(nonafluorobutanesulfonyl)imide-N-3′hydroxypropyl-N,N-dimethyloctadecylammonium] | 336.5 | 359.4 | 376.6 | –
17 | O=S(=O)(NS(=O)(=O)C(F)(F)C(F)(F)C(F)(F)C(F)(F)F)C(F)(F)C(F)(F)C(F)(F)C(F)(F)F [bis(nonafluorobutanesulfonyl)imide] | – | – | – | pKa [2]: 0.0
18 | O=S1(=O)NS(=O)(=O)C(F)(F)C(F)(F)C1(F)F [hexafluorocyclopropane-1,3-bis(sulfonyl)imide] | – | – | – | pKa [2]: −0.8
19 | F[B-](F)(F)F.[H+] [tetrafluoroboric acid] | – | – | – | pKa [2]: 1.8
20 | bis(nonafluorobutanesulfonyl)imide-1-dodecyl-2-undecyl-3-3′hydroxypropyloctadecylimidazolium [Example 7A] | 350.9 | 373.7 | 394.8 | –
21 | heptadecafluorooctanesulfonic acid-6-octadecyl-1,8-diazabicyclo[5.4.0]-7-undecenium | 361.9 | 382.7 | 403.5 | –
22 | heptadecafluorooctanesulfonic acid-6-octadecyl-1,8-diazabicyclo[5.4.0]-7-undecenium [Comparative Example 3A] | – | – | – | Fluorine-based solvent solubility [3]: Less than 0.1% by % by mass
23 | nonafluorobutanesulfonic acid-1-octadecyl-2-heptadecylimidazolium | 338.2 | 365.9 | 390.1 | –
24 | nonafluorobutanesulfonic acid-1-octadecylimidazolium | 349.3 | 375.0 | 397.5 | –
25 | nonafluorobutanesulfonic acid-N,N,N-trimethyloctadecylammonium [Comparative Example 9A, reference compound] | 340.5 | 356.2 | 371.9 | –
26 | pentadecafluorooctanoic acid octadecylammonium [Comparative Example 5A, reference compound] | 206.9 | 215.8 | 223.4 | Fluorine-based solvent solubility [3]: Less than 0.1% by % by mass
27 | pentadecafluorooctanoic acid octadecylammonium [pentadecafluorooctanoic acid octadecylammonium] | 206.9 | 215.8 | 223.4 | –
28 | perfluorocyclopropane sulfoimide | – | – | – | pKa [2]: −0.8
